Results reported in patent US8575157B2, “Cyclic inhibitors of 11beta-hydroxysteroid dehydrogenase 1” (Vitae Pharmaceuticals, Inc., priority 2010, dated 2013).
Like-named read-outs stand apart in the source and are kept apart here.

Key:
[1] = target: human recombinant cytochrome P450 3A4 (Homo sapiens (Human), UniProt P08684); assay: CYP3A4 inhibition, Biological Test Example 6; format: in vitro ADME
[2] = target: human recombinant cytochrome P450 2C9 (Homo sapiens (Human), UniProt P11712); assay: CYP2C9 inhibition ([O-methyl-14C]-Naproxen), Biological Test Example 7; format: in vitro ADME
[3] = target: human recombinant cytochrome P450 2C19 (Homo sapiens (Human), UniProt P33261); assay: CYP2C19 inhibition, Biological Test Example 8; format: in vitro ADME; conditions: read-out: Biological Test Example 8 CYP2C19, IC50
human CYP2C9 = human CYP2C9 (Homo sapiens (Human), UniProt P11712); assay: CYP2C9 inhibition (Invitrogen kit, OOMR fluorogenic substrate), Biological Test Example 9; format: in vitro ADME; conditions: read-out: Biological Test Example 9 CYP2C9 IC50
11β-HSD1 = 11β-HSD1 (Homo sapiens (Human), UniProt P28845); format: biochemical; conditions: human liver microsomes, 100% indicates no inhibition, zero or below zero indicates complete inhibition
[4] = Invitrogen kit, OOMR fluorogenic substrate
[5] = human recombinant CYP2C19, [N-methyl-14C]-Diazepam

Chain of human recombinant cytochrome P450 2C9 (P11712 whole entry): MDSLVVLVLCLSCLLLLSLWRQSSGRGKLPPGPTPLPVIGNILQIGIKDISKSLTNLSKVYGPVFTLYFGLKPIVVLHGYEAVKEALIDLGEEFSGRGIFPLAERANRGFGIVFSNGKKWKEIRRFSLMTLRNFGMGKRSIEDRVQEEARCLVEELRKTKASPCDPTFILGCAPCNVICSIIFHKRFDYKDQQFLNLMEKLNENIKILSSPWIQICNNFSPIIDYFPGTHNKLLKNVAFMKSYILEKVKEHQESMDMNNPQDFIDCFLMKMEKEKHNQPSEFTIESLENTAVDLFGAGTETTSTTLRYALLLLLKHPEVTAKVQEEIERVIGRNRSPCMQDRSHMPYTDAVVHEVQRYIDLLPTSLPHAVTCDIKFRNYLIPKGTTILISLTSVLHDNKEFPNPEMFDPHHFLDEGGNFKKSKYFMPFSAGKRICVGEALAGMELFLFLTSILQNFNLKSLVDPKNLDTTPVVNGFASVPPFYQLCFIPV
Chain of human CYP2C9 (P11712 whole entry): as above
Chain of human recombinant cytochrome P450 2C19 (P33261 whole entry): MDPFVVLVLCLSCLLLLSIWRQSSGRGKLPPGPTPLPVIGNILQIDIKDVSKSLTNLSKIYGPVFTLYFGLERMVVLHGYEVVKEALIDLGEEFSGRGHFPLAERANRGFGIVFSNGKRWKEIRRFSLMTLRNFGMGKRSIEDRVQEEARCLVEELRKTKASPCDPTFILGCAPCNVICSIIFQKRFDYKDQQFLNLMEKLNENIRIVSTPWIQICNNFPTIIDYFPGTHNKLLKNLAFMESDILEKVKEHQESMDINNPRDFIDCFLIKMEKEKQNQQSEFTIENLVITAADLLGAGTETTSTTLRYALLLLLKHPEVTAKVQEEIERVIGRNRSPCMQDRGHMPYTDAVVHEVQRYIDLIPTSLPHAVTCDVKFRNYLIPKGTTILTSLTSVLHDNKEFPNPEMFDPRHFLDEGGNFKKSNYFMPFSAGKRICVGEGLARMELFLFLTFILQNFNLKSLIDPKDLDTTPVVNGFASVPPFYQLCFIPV
Chain of human recombinant cytochrome P450 3A4 (P08684 whole entry): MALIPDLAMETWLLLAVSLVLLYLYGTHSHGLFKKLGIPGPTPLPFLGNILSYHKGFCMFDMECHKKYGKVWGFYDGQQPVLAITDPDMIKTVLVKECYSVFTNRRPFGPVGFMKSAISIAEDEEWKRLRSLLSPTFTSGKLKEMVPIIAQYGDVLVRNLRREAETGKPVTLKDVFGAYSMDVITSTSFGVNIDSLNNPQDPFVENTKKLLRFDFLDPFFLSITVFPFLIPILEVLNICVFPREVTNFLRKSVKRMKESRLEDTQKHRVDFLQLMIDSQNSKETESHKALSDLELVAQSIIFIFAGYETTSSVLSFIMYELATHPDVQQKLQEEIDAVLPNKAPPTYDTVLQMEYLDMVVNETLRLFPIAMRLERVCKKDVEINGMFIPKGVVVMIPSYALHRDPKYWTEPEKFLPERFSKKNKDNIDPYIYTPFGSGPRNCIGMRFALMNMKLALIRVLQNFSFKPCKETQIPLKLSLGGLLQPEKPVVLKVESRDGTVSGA
Chain of 11β-HSD1 (P28845 whole entry): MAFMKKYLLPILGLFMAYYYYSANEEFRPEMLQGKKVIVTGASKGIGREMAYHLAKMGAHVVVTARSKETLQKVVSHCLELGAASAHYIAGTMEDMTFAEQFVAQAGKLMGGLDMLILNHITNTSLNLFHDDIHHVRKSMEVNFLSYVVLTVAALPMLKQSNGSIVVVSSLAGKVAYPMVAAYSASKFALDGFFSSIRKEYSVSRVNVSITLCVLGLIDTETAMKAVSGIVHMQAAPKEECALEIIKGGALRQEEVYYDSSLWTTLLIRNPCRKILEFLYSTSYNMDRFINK

For CCn1cc(-c2ccc([C@H](C)N3CC[C@](CC(C)(C)O)(c4ccccc4)OC3=O)cc2)ccc1=O [Example 53, (S)-3-((S)-1-(4-(1-ethyl-6-oxo-1,6-dihydropyridin-3-yl)phenyl)ethyl)-6-(2-hydroxy-2-methylpropyl)-6-phenyl-1,3-oxazinan-2-one], the IC50 [1] was > 50 µM, the IC50 [2] was > 50 µM and the IC50 [3] was > 50 µM. It also gave an IC50 (human CYP2C9) of 30 µM.
For C[C@@H](c1ccc(-c2ccc(=O)n(C)c2)cc1)N1CC[C@](CC(C)(C)N)(c2ccccc2)OC1=O [Example 7, (S)-6-(2-amino-2-methylpropyl)-3-((S)-1-(4-(1-methyl-6-oxo-1,6-dihydropyridin-3-yl)phenyl)ethyl)-6-phenyl-1,3-oxazinan-2-one], the IC50 (human CYP2C9; [4]) was 4 µM.
In the case of C[C@@H](c1ccc(-c2ccc(=O)n(C(F)F)c2)cc1)N1CC[C@](CC(C)(C)O)(c2ccccc2)OC1=O [Example 4, (S)-3-((S)-1-(4-(1-(difluoromethyl)-6-oxo-1,6-dihydropyridin-3-yl)phenyl)ethyl)-6-(2-hydroxy-2-methylpropyl)-6-phenyl-1,3-oxazinan-2-one], the IC50 (human CYP2C9; [4]) is reported as 5.1 µM.
With CC(CO)Cn1ccc(-c2ccc([C@H](C)N3CC[C@](CC(C)(C)O)(c4ccccc4)OC3=O)cc2)cc1=O (stereo partly drawn) [Example 82, (S)-6-(2-Hydroxy-2-methyl-propyl)-3-((S)-1-{4-[1-(3-hydroxy-2-methyl-propyl)-2-oxo-1,2-dihydro-pyridin-4-yl]-phenyl}-ethyl)-6-phenyl-[1,3]oxazinan-2-one] the “Average % control inhibition at 100 nM” value (11β-HSD1) was −12 % control.
With C[C@@H](c1ccc(-c2ccn(C3CC3)c(=O)c2)cc1)N1CC[C@](CC(C)(C)O)(c2ccccc2F)OC1=O [Example 88, (S)-3-((S)-1-(4-(1-cyclopropyl-2-oxo-1,2-dihydropyridin-4-yl)phenyl)ethyl)-6-(2-fluorophenyl)-6-(2-hydroxy-2-methylpropyl)-1,3-oxazinan-2-one] the IC50 [1] was > 50 µM and the IC50 [3] was > 50 µM.
With C[C@@H](c1ccc(-c2ccc(=O)n(C)c2)cc1)N1CC[C@](CCCO)(c2ccccc2)OC1=O [Example 30, (R)-6-(3-hydroxypropyl)-3-((S)-1-(4-(1-methyl-6-oxo-1,6-dihydropyridin-3-yl)phenyl)ethyl)-6-phenyl-1,3-oxazinan-2-one] the IC50 [1] was > 50 µM.
C[C@@H](c1ccc(-c2ccc(=O)n(C)c2)cc1)N1CC[C@](CC(C)(C)O)(c2ccc(F)cc2)OC1=O [Example 32, (S)-6-(4-fluorophenyl)-6-(2-hydroxy-2-methylpropyl)-3-((S)-1-(4-(1-methyl-6-oxo-1,6-dihydropyridin-3-yl)phenyl)ethyl)-1,3-oxazinan-2-one] was tested, and the IC50 [1] was > 50 µM, the IC50 [2] was > 50 µM and the IC50 [3] was > 50 µM.
C[C@@H](c1ccc(-c2cc[nH]c(=O)c2)cc1)N1CC[C@](CC(C)(C)C#N)(c2ccccc2)OC1=O [Example 14, 2,2-dimethyl-3-((R)-2-oxo-3-((S)-1-(4-(2-oxo-1,2-dihydropyridin-4-yl)phenyl)ethyl)-6-phenyl-1,3-oxazinan-6-yl)propanenitrile] was tested, and the IC50 ([1]; human recombinant CYP3A4) was 19.7 µM, the IC50 ([2]; human recombinant CYP2C9) was 25.9 µM and the IC50 [3, 5] was 6.4 µM. It also gave an IC50 (human CYP2C9; [4]) of 24.6 µM.
CC(C)n1cc(-c2ccc([C@H](C)N3CC[C@](CC(C)(C)O)(c4ccccc4)OC3=O)cc2)ccc1=O [Example 59, (S)-6-(2-hydroxy-2-methylpropyl)-3-((S)-1-(4-(1-isopropyl-6-oxo-1,6-dihydropyridin-3-yl)phenyl)ethyl)-6-phenyl-1,3-oxazinan-2-one] was tested, and the IC50 [1] was > 50 µM.
With Cc1cc(-c2ccc([C@H](C)N3CC[C@](CC(C)(C)O)(c4ccccc4)OC3=O)cc2)cc(=O)n1C [Example 64, (S)-3-((S)-1-(4-(1,6-dimethyl-2-oxo-1,2-dihydropyridin-4-yl)phenyl)ethyl)-6-(2-hydroxy-2-methylpropyl)-6-phenyl-1,3-oxazinan-2-one] the IC50 [1] was > 50 µM.
In the case of C[C@@H](c1ccc(-c2ccn(C)c(=O)c2)cc1)N1CC[C@](CC(C)(C)NS(C)(=O)=O)(c2ccccc2)OC1=O [Example 13, N-(2-methyl-1-((S)-3-((S)-1-(4-(1-methyl-2-oxo-1,2-dihydropyridin-4-yl)phenyl)ethyl)-2-oxo-6-phenyl-1,3-oxazinan-6-yl)propan-2-yl)methanesulfonamide], the IC50 ([1]; human recombinant CYP3A4) is reported as 4.4 µM, the IC50 ([2]; human recombinant CYP2C9) is reported as 5.6 µM and the IC50 [3, 5] is reported as < 0.4 µM. For the same compound, the IC50 (human CYP2C9; [4]) was 7.3 µM.
C[C@@H](c1ccc(-c2cc[nH]c(=O)c2)cc1)N1CC[C@](CC(C)(C)O)(c2ccccc2)OC1=O [Example 2, (S)-6-(2-hydroxy-2-methylpropyl)-3-((S)-1-(4-(2-oxo-1,2-dihydropyridin-4-yl)phenyl)ethyl)-6-phenyl-1,3-oxazinan-2-one] showed an IC50 (human CYP2C9; [4]) of 1.4 µM.
In the case of CCn1cc(-c2ccc([C@H](C)N3CC[C@](CC(C)(C)O)(c4ccc(F)cc4)OC3=O)cc2)ccc1=O [Example 62, (S)-3-((S)-1-(4-(1-ethyl-6-oxo-1,6-dihydropyridin-3-yl)phenyl)ethyl)-6-(4-fluorophenyl)-6-(2-hydroxy-2-methylpropyl)-1,3-oxazinan-2-one], the IC50 [2] is reported as > 50 µM.
For CCn1cc(-c2ccc([C@H](C)N3CC[C@](CC(C)(C)O)(c4ccccc4)OC3=O)cc2)cc(C)c1=O [Example 70, (S)-3-((S)-1-(4-(1-ethyl-5-methyl-6-oxo-1,6-dihydropyridin-3-yl)phenyl)ethyl)-6-(2-hydroxy-2-methylpropyl)-6-phenyl-1,3-oxazinan-2-one], the IC50 [2] was > 50 µM.
C[C@@H](c1ccc(-c2ccc(=O)n(C)c2)cc1)N1CC[C@](CC(C)(C)C(N)=O)(c2ccccc2)OC1=O [Example 6, 2,2-dimethyl-3-((R)-3-((S)-1-(4-(1-methyl-6-oxo-1,6-dihydropyridin-3-yl)phenyl)ethyl)-2-oxo-6-phenyl-1,3-oxazinan-6-yl)propanamide] showed an IC50 ([1]; human recombinant CYP3A4) of 4.4 µM, an IC50 ([2]; human recombinant CYP2C9) of 2.3 µM and an IC50 [3, 5] of 8.6 µM. It also gave an IC50 (human CYP2C9; [4]) of 5 µM.
Compound CC(=O)NC(C)(C)C[C@]1(c2ccccc2)CCN([C@@H](C)c2ccc(-c3ccc(=O)n(C)c3)cc2)C(=O)O1 [Example 8, N-(2-methyl-1-((S)-3-((S)-1-(4-(1-methyl-6-oxo-1,6-dihydropyridin-3-yl)phenyl)ethyl)-2-oxo-6-phenyl-1,3-oxazinan-6-yl)propan-2-yl)acetamide] has an IC50 ([1]; human recombinant CYP3A4) of […], an IC50 ([2]; human recombinant CYP2C9) of […] and an IC50 [3, 5] of […]. For the same compound, the IC50 (human CYP2C9; [4]) was 3 µM.
In the case of C[C@@H](c1ccc(-c2ccc(=O)[nH]c2)cc1)N1CC[C@](CC(C)(C)C#N)(c2ccc(F)cc2)OC1=O [Example 15, 3-((R)-6-(4-fluorophenyl)-2-oxo-3-((S)-1-(4-(6-oxo-1,6-dihydropyridin-3-yl)phenyl)ethyl)-1,3-oxazinan-6-yl)-2,2-dimethylpropanenitrile], the IC50 ([1]; human recombinant CYP3A4) is reported as 3.1 µM, the IC50 ([2]; human recombinant CYP2C9) is reported as 7.7 µM and the IC50 [3, 5] is reported as < 0.4 µM. The IC50 (human CYP2C9; [4]) was 9.5 µM.
In the case of C[C@@H](c1ccc(-c2ccn(C)c(=O)c2)cc1)N1CC[C@](CC(C)(C)O)(c2ccccc2F)OC1=O [Example 26, (S)-6-(2-fluorophenyl)-6-(2-hydroxy-2-methylpropyl)-3-((S)-1-(4-(1-methyl-2-oxo-1,2-dihydropyridin-4-yl)phenyl)ethyl)-1,3-oxazinan-2-one], the IC50 [1] is reported as > 50 µM, the IC50 [2] is reported as > 50 µM and the IC50 [3] is reported as > 50 µM.
Cc1cc(-c2ccc([C@H](C)N3CC[C@](CC(C)(C)O)(c4ccccc4)OC3=O)cc2)cn(C)c1=O [Example 61, (S)-3-((S)-1-(4-(1,5-dimethyl-6-oxo-1,6-dihydropyridin-3-yl)phenyl)ethyl)-6-(2-hydroxy-2-methylpropyl)-6-phenyl-1,3-oxazinan-2-one] was tested, and the IC50 [1] was > 50 µM.
In the case of C[C@@H](c1ccc(-c2ccc(=O)n(C)c2)cc1)N1CC[C@](CC(C)(C)C#N)(c2ccc(F)cc2)OC1=O [Example 69, 3-((R)-6-(4-fluorophenyl)-3-((S)-1-(4-(1-methyl-6-oxo-1,6-dihydropyridin-3-yl)phenyl)ethyl)-2-oxo-1,3-oxazinan-6-yl)-2,2-dimethylpropanenitrile], the IC50 [3] is reported as > 50 µM.
With CC[C@@H](c1ccc(-c2ccc(=O)n(C)c2)cc1)N1CC[C@](CCO)(c2ccccc2)OC1=O [Example 40, (S)-6-(2-hydroxyethyl)-3-((S)-1-(4-(1-methyl-6-oxo-1,6-dihydropyridin-3-yl)phenyl)propyl)-6-phenyl-1,3-oxazinan-2-one] the IC50 [1] was > 50 µM and the IC50 [2] was > 50 µM.
